Laboratory results: PMC2990605 (British Journal of Cancer, 2010)
Entries after “also recorded” stand apart in the source; their conditions may differ.

Test: Adverse events (CTCAEv3.0), worst grade per patient regardless of relation, and laboratory parameters
Assay type: in vivo
Experimental: Toxicity was evaluated according to common toxicity criteria for adverse events (CTCAEv3.0). The MTD was defined as the dose level(s) at which at least two out of six patients developed DLT.
Toxicity assessment, haematology and clinical biochemistry were performed at baseline and weekly during the study. Physical and ECOG performance status were recorded at baseline and before the next cycle.

CC(C)C[C@@H](C(=O)N[C@H](C(=O)OC1CCCC1)c1ccccc1)[C@H](O)C(=O)NO [tosedostat]
Dyspnoea, CTCAE grade 1, patients (human, in vivo, 21 days): 0 | Eosinophilic myocarditis, CTCAE grade 1, patients (human, in vivo, 21 days): 0 | Eosinophilic myocarditis, CTCAE grade 2, patients (human, in vivo, 21 days): 0 | Eosinophilic myocarditis, CTCAE grade 3, patients (human, in vivo, 21 days): 0 | Eosinophilic myocarditis, CTCAE grade 4, patients (human, in vivo, 21 days): 0 | Eosinophilic myocarditis, patients with events, % (human, in vivo, 21 days): 0% | Erythema, CTCAE grade 1, patients (human, in vivo, 21 days): 0 | Erythema, CTCAE grade 2, patients (human, in vivo, 21 days): 0 | Erythema, CTCAE grade 3, patients (human, in vivo, 21 days): 0 | Erythema, CTCAE grade 4, patients (human, in vivo, 21 days): 0 | Erythema, patients with events, % (human, in vivo, 21 days): 0% | Fatigue, CTCAE grade 1, patients (human, in vivo, 21 days): 7 | Fatigue, CTCAE grade 2, patients (human, in vivo, 21 days): 2 | Fatigue, CTCAE grade 3, patients (human, in vivo, 21 days): 1 | Fatigue, CTCAE grade 4, patients (human, in vivo, 21 days): 0 | Fatigue, patients with events, % (human, in vivo, 21 days): 45% | Gastric dilatation, CTCAE grade 1, patients (human, in vivo, 21 days): 0 | Gastric dilatation, CTCAE grade 2, patients (human, in vivo, 21 days): 0 | Gastric dilatation, CTCAE grade 3, patients (human, in vivo, 21 days): 1 | Gastric dilatation, CTCAE grade 4, patients (human, in vivo, 21 days): 0 | Gastric dilatation, patients with events, % (human, in vivo, 21 days): 5% | General physical health deterioration, CTCAE grade 1, patients (human, in vivo, 21 days): 0 | General physical health deterioration, CTCAE grade 2, patients (human, in vivo, 21 days): 0 | General physical health deterioration, CTCAE grade 3, patients (human, in vivo, 21 days): 0 | General physical health deterioration, CTCAE grade 4, patients (human, in vivo, 21 days): 0 | General physical health deterioration, patients with events, % (human, in vivo, 21 days): 0% | Hypercalcaemia, CTCAE grade 1, patients (human, in vivo, 21 days): 0 | Hypercalcaemia, CTCAE grade 2, patients (human, in vivo, 21 days): 0 | Hypercalcaemia, CTCAE grade 3, patients (human, in vivo, 21 days): 0 | Hypercalcaemia, CTCAE grade 4, patients (human, in vivo, 21 days): 0 | Hypercalcaemia, patients with events, % (human, in vivo, 21 days): 0% | Hyperglycaemia, CTCAE grade 1, patients (human, in vivo, 21 days): 0 | Hyperglycaemia, CTCAE grade 2, patients (human, in vivo, 21 days): 0 | Hyperglycaemia, CTCAE grade 3, patients (human, in vivo, 21 days): 2 | Hyperglycaemia, CTCAE grade 4, patients (human, in vivo, 21 days): 0 | Hyperglycaemia, patients with events, % (human, in vivo, 21 days): 9% | Hyperhidrosis, CTCAE grade 1, patients (human, in vivo, 21 days): 1 | Hyperhidrosis, CTCAE grade 2, patients (human, in vivo, 21 days): 0 | Hyperhidrosis, CTCAE grade 3, patients (human, in vivo, 21 days): 0 | Hyperhidrosis, CTCAE grade 4, patients (human, in vivo, 21 days): 0 | Hyperhidrosis, patients with events, % (human, in vivo, 21 days): 5% | Leukopenia, CTCAE grade 1, patients (human, in vivo, 21 days): 0 | Leukopenia, CTCAE grade 2, patients (human, in vivo, 21 days): 2 | Leukopenia, CTCAE grade 3, patients (human, in vivo, 21 days): 2 | Leukopenia, CTCAE grade 4, patients (human, in vivo, 21 days): 0 | Leukopenia, patients with events, % (human, in vivo, 21 days): 18% | Malaise, CTCAE grade 2, patients (human, in vivo, 21 days): 0 | Malaise, CTCAE grade 3, patients (human, in vivo, 21 days): 1 | Malaise, CTCAE grade 4, patients (human, in vivo, 21 days): 0 | Malaise, patients with events, % (human, in vivo, 21 days): 5% | Mucosal inflammation, CTCAE grade 1, patients (human, in vivo, 21 days): 2 | Mucosal inflammation, CTCAE grade 2, patients (human, in vivo, 21 days): 1 | Mucosal inflammation, CTCAE grade 3, patients (human, in vivo, 21 days): 0 | Mucosal inflammation, CTCAE grade 4, patients (human, in vivo, 21 days): 0 | Mucosal inflammation, patients with events, % (human, in vivo, 21 days): 14% | Myalgia, CTCAE grade 1, patients (human, in vivo, 21 days): 7 | Myalgia, CTCAE grade 2, patients (human, in vivo, 21 days): 1 | Myalgia, CTCAE grade 3, patients (human, in vivo, 21 days): 1 | Myalgia, CTCAE grade 4, patients (human, in vivo, 21 days): 0 | Myalgia, patients with events, % (human, in vivo, 21 days): 41% | Nasopharyngitis, CTCAE grade 1, patients (human, in vivo, 21 days): 2 | Nasopharyngitis, CTCAE grade 2, patients (human, in vivo, 21 days): 0 | Nasopharyngitis, CTCAE grade 3, patients (human, in vivo, 21 days): 0 | Nasopharyngitis, CTCAE grade 4, patients (human, in vivo, 21 days): 0 | Nasopharyngitis, patients with events, % (human, in vivo, 21 days): 9% | Nausea, CTCAE grade 1, patients (human, in vivo, 21 days): 4 | Nausea, CTCAE grade 2, patients (human, in vivo, 21 days): 1 | Nausea, CTCAE grade 3, patients (human, in vivo, 21 days): 0 | Nausea, CTCAE grade 4, patients (human, in vivo, 21 days): 0 | Nausea, patients with events, % (human, in vivo, 21 days): 23% | Neutropenia, CTCAE grade 1, patients (human, in vivo, 21 days): 0 | Neutropenia, CTCAE grade 2, patients (human, in vivo, 21 days): 1 | Neutropenia, CTCAE grade 3, patients (human, in vivo, 21 days): 2 | Neutropenia, CTCAE grade 4, patients (human, in vivo, 21 days): 3 | Neutropenia, patients with events, % (human, in vivo, 21 days): 27% | Oedema peripheral, CTCAE grade 1, patients (human, in vivo, 21 days): 4 | Oedema peripheral, CTCAE grade 2, patients (human, in vivo, 21 days): 1 | Oedema peripheral, CTCAE grade 3, patients (human, in vivo, 21 days): 0 | Oedema peripheral, CTCAE grade 4, patients (human, in vivo, 21 days): 0 | Oedema peripheral, patients with events, % (human, in vivo, 21 days): 23% | Oedema, CTCAE grade 1, patients (human, in vivo, 21 days): 3 | Oedema, CTCAE grade 2, patients (human, in vivo, 21 days): 0 | Oedema, CTCAE grade 3, patients (human, in vivo, 21 days): 0 | Oedema, CTCAE grade 4, patients (human, in vivo, 21 days): 0 | Oedema, patients with events, % (human, in vivo, 21 days): 14% | Peripheral sensory neuropathy, CTCAE grade 1, patients (human, in vivo, 21 days): 4 | Peripheral sensory neuropathy, CTCAE grade 2, patients (human, in vivo, 21 days): 3 | Peripheral sensory neuropathy, CTCAE grade 3, patients (human, in vivo, 21 days): 0 | Peripheral sensory neuropathy, CTCAE grade 4, patients (human, in vivo, 21 days): 0 | Peripheral sensory neuropathy, patients with events, % (human, in vivo, 21 days): 32% | Pollakiuria, CTCAE grade 1, patients (human, in vivo, 21 days): 0 | Pollakiuria, CTCAE grade 2, patients (human, in vivo, 21 days): 0 | Pollakiuria, CTCAE grade 3, patients (human, in vivo, 21 days): 0 | Pollakiuria, CTCAE grade 4, patients (human, in vivo, 21 days): 0 | Pollakiuria, patients with events, % (human, in vivo, 21 days): 0% | Pruritus, CTCAE grade 1, patients (human, in vivo, 21 days): 3 | Pruritus, CTCAE grade 2, patients (human, in vivo, 21 days): 0 | Pruritus, CTCAE grade 3, patients (human, in vivo, 21 days): 1 | Pruritus, CTCAE grade 4, patients (human, in vivo, 21 days): 0 | Pruritus, patients with events, % (human, in vivo, 21 days): 18% | Pyrexia, CTCAE grade 1, patients (human, in vivo, 21 days): 1 | Pyrexia, CTCAE grade 2, patients (human, in vivo, 21 days): 1 | Pyrexia, CTCAE grade 3, patients (human, in vivo, 21 days): 0 | Pyrexia, CTCAE grade 4, patients (human, in vivo, 21 days): 0 | Pyrexia, patients with events, % (human, in vivo, 21 days): 9% | Rash, CTCAE grade 1, patients (human, in vivo, 21 days): 3 | Rash, CTCAE grade 2, patients (human, in vivo, 21 days): 1 | Rash, CTCAE grade 3, patients (human, in vivo, 21 days): 1 | Rash, CTCAE grade 4, patients (human, in vivo, 21 days): 0 | Rash, patients with events, % (human, in vivo, 21 days): 23% | Spinal cord compression, CTCAE grade 1, patients (human, in vivo, 21 days): 0 | Spinal cord compression, CTCAE grade 2, patients (human, in vivo, 21 days): 0 | Spinal cord compression, CTCAE grade 3, patients (human, in vivo, 21 days): 0 | Spinal cord compression, CTCAE grade 4, patients (human, in vivo, 21 days): 0 | Spinal cord compression, patients with events, % (human, in vivo, 21 days): 0% | Tumour pain, CTCAE grade 1, patients (human, in vivo, 21 days): 0 | Tumour pain, CTCAE grade 2, patients (human, in vivo, 21 days): 0 | Tumour pain, CTCAE grade 3, patients (human, in vivo, 21 days): 1 | Tumour pain, CTCAE grade 4, patients (human, in vivo, 21 days): 0 | Tumour pain, patients with events, % (human, in vivo, 21 days): 5% | Urinary tract infection, CTCAE grade 1, patients (human, in vivo, 21 days): 0 | Urinary tract infection, CTCAE grade 2, patients (human, in vivo, 21 days): 0 | Urinary tract infection, CTCAE grade 3, patients (human, in vivo, 21 days): 1 | Urinary tract infection, CTCAE grade 4, patients (human, in vivo, 21 days): 0 | Urinary tract infection, patients with events, % (human, in vivo, 21 days): 5% | Vomiting, CTCAE grade 1, patients (human, in vivo, 21 days): 3 | Vomiting, CTCAE grade 2, patients (human, in vivo, 21 days): 1 | Vomiting, CTCAE grade 3, patients (human, in vivo, 21 days): 0 | Vomiting, CTCAE grade 4, patients (human, in vivo, 21 days): 0 | Vomiting, patients with events, % (human, in vivo, 21 days): 18% | γ-glutamyltransferase increased, CTCAE grade 1, patients (human, in vivo, 21 days): 0 | γ-glutamyltransferase increased, CTCAE grade 2, patients (human, in vivo, 21 days): 0 | γ-glutamyltransferase increased, CTCAE grade 3, patients (human, in vivo, 21 days): 1 | γ-glutamyltransferase increased, CTCAE grade 4, patients (human, in vivo, 21 days): 0 | γ-glutamyltransferase increased, patients with events, % (human, in vivo, 21 days): 5% | death on study, cause (one patient, cohort 5, 6 days after third paclitaxel infusion, 2 days after last tosedostat dose): eosinophilic myocarditis, possibly related to study medication; also recorded: eosinophilic myocarditis, considered possibly related to paclitaxel, tosedostat or other medications
